From the supplement of paper PMC13380429

Key:
[1] = test system: A549-ACE2 infected with SARS-CoV-2; test: cell count relative to DMSO; higher = less toxic; conditions: 24 h
Caco-2 [2] = test: cell viability relative to DMSO; higher = less toxic; conditions: 72 h
Calu-3 [3] = test: as above; conditions: 72 h
HepG2 [4] = test: as above; conditions: 72 h
U2OS [5] = test: as above; conditions: 72 h
Vero E6 [6] = test: as above; conditions: 72 h
[7] = test system: A549-ACE2 infected with SARS-CoV-2; test: SARS-CoV-2 infection rate relative to DMSO; higher = more infection; conditions: 24 h
A549-ACE2 [8] = test: drug-induced phospholipidosis relative to tamoxifen; higher = more phospholipidosis
[9] = test system: A549-ACE2 infected with SARS-CoV-2; test: morphology score (similarity to uninfected cells); higher = more like uninfected cells; conditions: 24 h
Caco-2 [10] = test: relative viability EC50 (midpoint between 100% and the lowest measured viability); higher = less toxic; conditions: 72 h
Calu-3 [11] = test: as above; conditions: 72 h
HepG2 [12] = test: as above; conditions: 72 h
U2OS [13] = test: as above; conditions: 72 h
Vero E6 [14] = test: as above; conditions: 72 h
Caco-2 [15] = test: drug sensitivity score (DSS) for viability; higher = more toxic; extreme values may be limits of the assay; conditions: 72 h
Calu-3 [16] = test: as above; conditions: 72 h
HepG2 [17] = test: as above; conditions: 72 h
U2OS [18] = test: as above; conditions: 72 h
Vero E6 [19] = test: as above; conditions: 72 h
A549-ACE2 [20] = test: phospholipidosis EC50; higher = less potent phospholipidosis inducer

O=C(OCC(O)CO)c1ccccc1Nc1ccnc2cc(Cl)ccc12 (stereo not drawn) [glafenine]
Conditions | SARS-CoV-2 infection rate, [7] [%] | cell count, [1] [%] | cell viability, Caco-2 [2] [%] | cell viability, Calu-3 [3] [%] | cell viability, HepG2 [4] [%] | cell viability, U2OS [5] [%] | cell viability, Vero E6 [6] [%] | morphology score, [9]
1 nM | – | – | 84.7 | 89.4 | 99.8 | 97.2 | 101 | –
10 nM | – | – | 95.9 | 100 | 81.1 | 102 | 90.5 | –
100 nM | – | – | 66.6 | 87.7 | 97.4 | 94.8 | 102 | –
0.3 µM | 94 | 103 | – | – | – | – | – | 0.2
1000 nM | – | – | 89.5 | 106 | 91 | 98.2 | 86.9 | –
3 µM | 88 | 85 | – | – | – | – | – | 0.28
10 µM | 97 | 115 | – | – | – | – | – | 0.42
10000 nM | – | – | 95.7 | 94 | 94.3 | 89 | 107 | –
30 µM | 53 | 104 | – | – | – | – | – | 0.74

drug-induced phospholipidosis [%], A549-ACE2 [8]
Conditions | 0.3 µM | 0.833333 µM | 3.33333 µM | 6.66667 µM | 10 µM | 30 µM
24 h | 0.74 | 1.36 | 2 | 1.93 | 2.17 | 23.8
48 h | 0.09 | -3.04 | 0.5 | 3.25 | 3.8 | 23.1
72 h | -1.15 | -3.87 | -2.67 | 0.336 | 3.93 | 30.1

Conditions | drug sensitivity score | relative viability EC50 [µM]
Caco-2 [10] | – | > 10
Caco-2 [15] | 0 | –
Calu-3 [11] | – | > 10
Calu-3 [16] | 0 | –
HepG2 [12] | – | > 10
HepG2 [17] | 0 | –
U2OS [13] | – | > 10
U2OS [18] | 0 | –
Vero E6 [14] | – | > 10
Vero E6 [19] | 0 | –

CN1CCC[C@@H](CC2c3ccccc3Sc3ccccc32)C1 (racemic) [metixene]
Conditions | SARS-CoV-2 infection rate [%] | cell count [%] | cell viability [%] | morphology score | phospholipidosis EC50 [µM]
A549-ACE2 [20], 24 h | – | – | – | – | 5.44
A549-ACE2 [20], 48 h | – | – | – | – | 9.46
A549-ACE2 [20], 72 h | – | – | – | – | 4.98
Caco-2 [2], 1 nM | – | – | 85.9 | – | –
Caco-2 [2], 10 nM | – | – | 94.5 | – | –
Caco-2 [2], 100 nM | – | – | 94.7 | – | –
Caco-2 [2], 1000 nM | – | – | 120 | – | –
Caco-2 [2], 10000 nM | – | – | 71.9 | – | –
Calu-3 [3], 1 nM | – | – | 102 | – | –
Calu-3 [3], 10 nM | – | – | 100 | – | –
Calu-3 [3], 100 nM | – | – | 100 | – | –
Calu-3 [3], 1000 nM | – | – | 100 | – | –
Calu-3 [3], 10000 nM | – | – | 73.1 | – | –
HepG2 [4], 1 nM | – | – | 104 | – | –
HepG2 [4], 10 nM | – | – | 104 | – | –
HepG2 [4], 100 nM | – | – | 105 | – | –
HepG2 [4], 1000 nM | – | – | 101 | – | –
HepG2 [4], 10000 nM | – | – | 72.3 | – | –
U2OS [5], 1 nM | – | – | 105 | – | –
U2OS [5], 10 nM | – | – | 95.3 | – | –
U2OS [5], 100 nM | – | – | 99.4 | – | –
U2OS [5], 1000 nM | – | – | 93.2 | – | –
U2OS [5], 10000 nM | – | – | 89.8 | – | –
Vero E6 [6], 1 nM | – | – | 96.6 | – | –
Vero E6 [6], 10 nM | – | – | 109 | – | –
Vero E6 [6], 100 nM | – | – | 105 | – | –
Vero E6 [6], 1000 nM | – | – | 101 | – | –
Vero E6 [6], 10000 nM | – | – | 74 | – | –
[1], 0.1 µM | – | 106 | – | – | –
[1], 0.3 µM | – | 99 | – | – | –
[1], 1 µM | – | 110 | – | – | –
[1], 3 µM | – | 129 | – | – | –
[7], 0.1 µM | 94 | – | – | – | –
[7], 0.3 µM | 103 | – | – | – | –
[7], 1 µM | 65 | – | – | – | –
[7], 3 µM | 30 | – | – | – | –
[9], 0.1 µM | – | – | – | 0.09 | –
[9], 0.3 µM | – | – | – | -0.03 | –
[9], 1 µM | – | – | – | 0.65 | –
[9], 3 µM | – | – | – | 0.88 | –

drug-induced phospholipidosis [%], A549-ACE2 [8]
Conditions | 0.3 µM | 0.833333 µM | 3.33333 µM | 6.66667 µM | 10 µM | 30 µM
24 h | 0.41 | 9.1 | 52.9 | 78.2 | 91.4 | 121
48 h | 4.61 | 5.46 | 39.9 | 75.4 | 93.7 | 145
72 h | 4.08 | 3.27 | 28.5 | 66.5 | 82.7 | –

Conditions | drug sensitivity score | relative viability EC50 [µM]
Caco-2 [15] | 0.6 | –
Calu-3 [16] | 1.1 | –
HepG2 [17] | 1.1 | –
U2OS [13] | – | > 10
U2OS [18] | 0 | –
Vero E6 [19] | 0.9 | –

CCCC[C@H]1OC(=O)c2ccccc21 [butylphthalide]
cell viability [%]
Conditions | Caco-2 [2] | Calu-3 [3] | HepG2 [4] | U2OS [5] | Vero E6 [6]
1 nM | 111 | 103 | 104 | 102 | 103
10 nM | 95.2 | 96.8 | 107 | 98.9 | 91
100 nM | 102 | 98.3 | 97.2 | 102 | 105
1000 nM | 88.9 | 95.5 | 97.8 | 95 | 106
10000 nM | 102 | 104 | 94.9 | 98.7 | 101

Conditions | drug sensitivity score | relative viability EC50 [µM]
Caco-2 [10] | – | > 10
Caco-2 [15] | 0 | –
Calu-3 [11] | – | > 10
Calu-3 [16] | 0 | –
HepG2 [12] | – | > 10
HepG2 [17] | 0 | –
U2OS [13] | – | > 10
U2OS [18] | 0 | –
Vero E6 [14] | – | > 10
Vero E6 [19] | 0 | –

Cc1ccccc1-c1cc(N2CCN(C)CC2)ncc1N(C)C(=O)C(C)(C)c1cc(C(F)(F)F)cc(C(F)(F)F)c1 [netupitant]
cell viability [%]
Conditions | Caco-2 [2] | Calu-3 [3] | HepG2 [4] | U2OS [5] | Vero E6 [6]
1 nM | 93.2 | 94.8 | 95 | 102 | 106
10 nM | 92.6 | 101 | 98.2 | 99 | 108
100 nM | 91.5 | 105 | 104 | 101 | 103
1000 nM | 96 | 112 | 97.9 | 99.4 | 104
10000 nM | 95.2 | 102 | 95.6 | 96.5 | 97.5

Conditions | drug sensitivity score | relative viability EC50 [µM]
Caco-2 [10] | – | > 10
Caco-2 [15] | 0 | –
Calu-3 [11] | – | > 10
Calu-3 [16] | 0 | –
HepG2 [12] | – | > 10
HepG2 [17] | 0 | –
U2OS [13] | – | > 10
U2OS [18] | 0 | –
Vero E6 [14] | – | > 10
Vero E6 [19] | 0 | –

C[C@](N)(Cc1ccc(O)c(O)c1)C(=O)O [methyldopa]
cell viability [%]
Conditions | Caco-2 [2] | Calu-3 [3] | HepG2 [4] | U2OS [5] | Vero E6 [6]
1 nM | 97.5 | 96.9 | 94.1 | 101 | 99.2
10 nM | 103 | 102 | 97.4 | 103 | 102
100 nM | 89.8 | 101 | 104 | 96.7 | 94.5
1000 nM | 106 | 98.9 | 92.3 | 97.8 | 97.9
10000 nM | 99.9 | 93.6 | 108 | 93.1 | 106

Conditions | drug sensitivity score | relative viability EC50 [µM]
Caco-2 [10] | – | > 10
Caco-2 [15] | 0 | –
Calu-3 [11] | – | > 10
Calu-3 [16] | 0 | –
HepG2 [12] | – | > 10
HepG2 [17] | 0 | –
U2OS [13] | – | > 10
U2OS [18] | 0 | –
Vero E6 [14] | – | > 10
Vero E6 [19] | 0 | –
